Broadly, the Kd is the constant that tells how readily two partners part at equilibrium. A low value points to a tighter complex.

The conditions of data set [1]: rats, radiolabeled Zafirlukast; ref Zeng et al., 2020; cited from earlier work.
The conditions of data set [2]: at higher doses, preclinical models; ref Finnerty et al., 1992; cited from earlier work.
The target of the next data set is YFV helicase (Yellow fever virus, UniProt P03314). Kind of data set: biochemical. It is filed as binding.
The target in another data set is T1, ZIKV helicase (Zika virus, UniProt Q32ZE1).
T1 sequence (Q32ZE1 1670-2115 limits assumed): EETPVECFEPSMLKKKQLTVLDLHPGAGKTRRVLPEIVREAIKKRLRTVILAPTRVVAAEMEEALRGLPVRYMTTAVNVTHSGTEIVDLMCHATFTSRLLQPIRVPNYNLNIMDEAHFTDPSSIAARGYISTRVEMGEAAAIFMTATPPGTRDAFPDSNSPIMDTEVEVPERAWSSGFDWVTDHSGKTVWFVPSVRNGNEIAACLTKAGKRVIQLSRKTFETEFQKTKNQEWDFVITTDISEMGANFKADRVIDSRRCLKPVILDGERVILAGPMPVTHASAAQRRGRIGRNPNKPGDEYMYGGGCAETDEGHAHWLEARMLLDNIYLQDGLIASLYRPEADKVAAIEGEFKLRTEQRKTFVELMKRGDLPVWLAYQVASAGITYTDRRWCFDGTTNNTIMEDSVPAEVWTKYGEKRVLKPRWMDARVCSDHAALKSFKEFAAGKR
Kind of data set: Isothermal titration calorimetry, ZIKV helicase. It is filed as binding. The settings on record: ITC, 16°C. Background: Isothermal titration calorimetry measures the heat released or taken up as one component is titrated into another.

The next data set deals with DENV2 helicase (Dengue virus type 2, UniProt P29990). Kind of data set: Isothermal titration calorimetry, DENV2 helicase. Format: binding. The settings on record: ITC, 16°C.
A further data set deals with DENV4 helicase (Dengue virus type 4, UniProt Q2YHF0). Kind of data set: Isothermal titration calorimetry, DENV4 helicase. Format: binding. The following applies: ITC.
For a further data set, the target named is TBEV helicase (Tick-borne encephalitis virus, UniProt Q01299). Kind of data set: biochemical. It is filed as binding.
The target in another data set is T2, JEV helicase (Japanese encephalitis virus, UniProt P32886).
T2 sequence (P32886 1676-2123 limits assumed): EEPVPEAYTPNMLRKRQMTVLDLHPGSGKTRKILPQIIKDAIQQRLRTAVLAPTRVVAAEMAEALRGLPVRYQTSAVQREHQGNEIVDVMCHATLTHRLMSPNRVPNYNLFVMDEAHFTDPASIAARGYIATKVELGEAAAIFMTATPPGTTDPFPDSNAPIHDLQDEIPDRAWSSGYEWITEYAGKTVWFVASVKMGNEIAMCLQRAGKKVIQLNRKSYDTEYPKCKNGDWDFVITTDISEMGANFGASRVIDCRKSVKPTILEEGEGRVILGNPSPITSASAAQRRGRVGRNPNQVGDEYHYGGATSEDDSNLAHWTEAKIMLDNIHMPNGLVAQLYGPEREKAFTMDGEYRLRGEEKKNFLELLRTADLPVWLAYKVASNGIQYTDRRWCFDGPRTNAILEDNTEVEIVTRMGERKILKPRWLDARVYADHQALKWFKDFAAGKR
In words: Isothermal titration calorimetry, JEV helicase. It is filed as binding. The settings on record: ITC, 16°C.

DENV4 helicase, sequence (Q2YHF0 1645-2092 limits assumed): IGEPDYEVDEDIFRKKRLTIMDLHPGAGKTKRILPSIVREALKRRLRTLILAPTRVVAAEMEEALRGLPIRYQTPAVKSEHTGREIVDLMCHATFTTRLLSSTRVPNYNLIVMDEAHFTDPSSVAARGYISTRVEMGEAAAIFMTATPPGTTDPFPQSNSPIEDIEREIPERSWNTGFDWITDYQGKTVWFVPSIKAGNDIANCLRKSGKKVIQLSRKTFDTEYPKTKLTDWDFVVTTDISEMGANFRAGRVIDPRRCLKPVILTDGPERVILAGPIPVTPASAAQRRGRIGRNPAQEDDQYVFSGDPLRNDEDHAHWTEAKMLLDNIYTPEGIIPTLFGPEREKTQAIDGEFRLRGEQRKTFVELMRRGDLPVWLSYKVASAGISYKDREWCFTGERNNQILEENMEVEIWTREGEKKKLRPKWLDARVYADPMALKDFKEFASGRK
TBEV helicase, sequence (Q01299 1666-2110 limits assumed): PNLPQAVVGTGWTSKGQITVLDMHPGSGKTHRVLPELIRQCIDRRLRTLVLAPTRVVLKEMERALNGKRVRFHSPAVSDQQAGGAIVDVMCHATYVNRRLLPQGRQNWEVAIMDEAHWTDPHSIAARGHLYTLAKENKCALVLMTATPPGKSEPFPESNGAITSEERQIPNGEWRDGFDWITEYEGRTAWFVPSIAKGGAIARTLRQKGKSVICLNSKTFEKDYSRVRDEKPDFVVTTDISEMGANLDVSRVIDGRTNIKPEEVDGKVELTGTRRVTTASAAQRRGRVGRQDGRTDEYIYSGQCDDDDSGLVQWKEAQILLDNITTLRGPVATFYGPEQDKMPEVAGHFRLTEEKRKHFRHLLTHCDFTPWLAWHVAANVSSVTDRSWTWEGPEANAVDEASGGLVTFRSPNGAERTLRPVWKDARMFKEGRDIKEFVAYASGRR
YFV helicase, sequence (P03314 1660-2107 limits assumed): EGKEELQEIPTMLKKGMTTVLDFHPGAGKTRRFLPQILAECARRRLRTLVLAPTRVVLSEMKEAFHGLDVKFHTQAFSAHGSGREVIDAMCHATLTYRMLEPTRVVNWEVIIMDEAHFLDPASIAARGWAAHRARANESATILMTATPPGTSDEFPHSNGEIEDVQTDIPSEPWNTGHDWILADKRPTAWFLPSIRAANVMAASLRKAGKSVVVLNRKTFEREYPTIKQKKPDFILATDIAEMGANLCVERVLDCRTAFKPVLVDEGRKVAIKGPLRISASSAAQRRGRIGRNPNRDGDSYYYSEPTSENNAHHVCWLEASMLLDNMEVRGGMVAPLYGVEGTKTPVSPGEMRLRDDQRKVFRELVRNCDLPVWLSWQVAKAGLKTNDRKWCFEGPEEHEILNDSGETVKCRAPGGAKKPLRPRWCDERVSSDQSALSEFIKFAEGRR
DENV2 helicase, sequence (P29990 1646-2093 limits assumed): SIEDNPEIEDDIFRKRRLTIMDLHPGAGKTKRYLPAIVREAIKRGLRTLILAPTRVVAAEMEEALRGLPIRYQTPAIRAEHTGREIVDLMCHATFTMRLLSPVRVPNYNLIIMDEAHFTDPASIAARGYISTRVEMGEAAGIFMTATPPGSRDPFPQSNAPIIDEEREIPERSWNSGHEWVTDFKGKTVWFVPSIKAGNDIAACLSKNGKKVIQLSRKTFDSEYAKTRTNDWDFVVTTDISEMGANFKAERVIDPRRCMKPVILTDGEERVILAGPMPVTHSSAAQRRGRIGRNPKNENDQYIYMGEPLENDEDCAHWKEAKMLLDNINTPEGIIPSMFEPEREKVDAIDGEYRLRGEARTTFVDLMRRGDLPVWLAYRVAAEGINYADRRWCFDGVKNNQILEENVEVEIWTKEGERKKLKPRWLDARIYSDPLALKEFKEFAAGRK

For `COc1cc(C(=O)NS(=O)(=O)c2ccccc2C)ccc1Cc1cn(C)c2ccc(NC(=O)OC3CCCC3)cc12` [Zafirlukast], the “Distribution across the blood-brain barrier” value in data set [1] was “minimal distribution across the blood–brain barrier”. For the same compound, in data set [2], the Tumor incidence entry was “increased incidence of hepatocellular tumors, histiocytic sarcoma, and bladder cancer”. Further, the Kd at YFV helicase worked out at 6.59 µM; on ZIKV helicase, 13.9 µM; at DENV2 helicase, 2.73 µM; at DENV4 helicase, 1.57 µM; on TBEV helicase, 361 µM; on JEV helicase, 199 µM.

(Values after PMC12521441 (Frontiers in Cellular and Infection Microbiology, 2025).)
